Measurements reported in US20240374590A1, “COMPOSITIONS AND METHODS FOR TREATING CANCER” (A2A PHARMACEUTICALS, INC., priority 2021, published 2024).

How the values were obtained:
[1] = tested on: JIMT-1 human breast cancer cell line; assay: Cell viability assay (SRB) in JIMT-1; format: cell-based; details: 72 hours after treatment, read-out: JIMT1 IC50
Experimental: (§1) Human colon carcinoma cell line HCT-116 was a kind gift from Igor Ronninson from University of South Caroli, Columbia, USA. Human breast cancer cell line, JIMT-1 was kindly provided by Ali Osmay Güre from Bilkent University, Ankara, Turkey. Cells were cultured in Dulbecco's modified Eagle's medium (Lonza, NJ, USA), supplemented with 10% fetal bovine serum (FBS, Lonza), 1% non-essential amino acid (NEAA), 2 mM L-glutamine (Sigma Aldrich, MO, USA) and 50 U/ml penicillin/streptomycin (P/S). HCT-116 cells were cultured in McCoy's 5A (modified) (Gibco) medium supplemented with FBS, NEAA, L-glutamine and P/S. All cell lines were tested regularly using MycoAlert Mycoplasma Detection Kit (Lonza). The cumulative length of the cells between thawing and use in the experiments was less than 20 passages.
(§2) Newly synthesized molecules were dissolved in 100% DMSO to yield a stock concentration of 10 mM. For cell viability assay, JIMT-1 (3×10^3 cells/well) and HCT-116 (4×10^3), cells were seeded into 96-well plates, and 24 hours after cell seeding inhibitor treatments were performed at different concentrations. Cell viability was measured 72 hours after treatment with Sulforhodamine B (SRB, Sigma Aldrich) assay as recommended by the manufacturer.

[2] = tested on: HCT-116 human colon carcinoma cell line; assay: Cell viability assay (SRB) in HCT-116; format: cell-based; details: 72 hours after treatment, read-out: HCT116 IC50
Experimental: as §1, §2

Compound	IC50 [1] [nM]	IC50 [2] [nM]
C[C@@H]1CN(c2nccc(Nc3cc(-c4ccc(OC(F)F)cc4)n[nH]3)n2)C[C@H](C)O1 [Compound 201, N-(3-(4-(difluoromethoxy)phenyl)-1H-pyrazol-5-yl)-2-((2R,6S)-2,6-dimethylmorpholino)pyrimidin-4-amine]	76	91
C[C@@H]1CN(c2nccc(Nc3cc(-c4ccc(C(F)F)cc4)n[nH]3)n2)C[C@H](C)O1 [Compound 202, N-(3-(4-(difluoromethyl)phenyl)-1H-pyrazol-5-yl)-2-((2R,6S)-2,6-dimethylmorpholino)pyrimidin-4-amine]	187	722
COc1cc(-c2cc(Nc3ccnc(N4C[C@@H](C)O[C@@H](C)C4)n3)[nH]n2)cc(OC)c1OC [Compound 203, 2-((2R,6S)-2,6-dimethylmorpholino)-N-(3-(3,4,5-trimethoxyphenyl)-1H-pyrazol-5-yl)pyrimidin-4-amine]	1700	2490
C[C@@H]1CN(c2nccc(Nc3cc(-c4ccc5occc5c4)n[nH]3)n2)C[C@H](C)O1 [Compound 205, N-(3-(benzofuran-5-yl)-1H-pyrazol-5-yl)-2-((2R,6S)-2,6-dimethylmorpholino)pyrimidin-4-amine]	27	96
COc1ccc(-c2cc(Nc3ccnc(N4C[C@@H](C)O[C@@H](C)C4)n3)[nH]n2)cc1C(F)(F)F [Compound 207, 2-((2R,6S)-2,6-dimethylmorpholino)-N-(3-(4-methoxy-3-(trifluoromethyl)phenyl)-1H-pyrazol-5-yl)pyrimidin-4-amine]	974	5530
C[C@@H]1CN(c2nccc(Nc3cc(-c4ccc(Br)cc4)n[nH]3)n2)C[C@H](C)O1 [Compound 208, N-(3-(4-bromophenyl)-1H-pyrazol-5-yl)-2-((2R,6S)-2,6-dimethylmorpholino)pyrimidin-4-amine]	212	448
C[C@@H]1CN(c2nccc(Nc3cc(-c4ccc(OCF)cc4)n[nH]3)n2)C[C@H](C)O1 [Compound 210, 2-((2R,6S)-2,6-dimethylmorpholino)-N-(3-(4-(fluoromethoxy)phenyl)-1H-pyrazol-5-yl)pyrimidin-4-amine]	30	31
C[C@@H]1CN(c2nccc(Nc3cc(-c4ccc5c(c4)CCC5)[nH]n3)n2)C[C@H](C)O1 [Compound 211, N-(5-(2,3-dihydro-1H-inden-5-yl)-1H-pyrazol-3-yl)-2-((2R,6S)-2,6-dimethylmorpholino)pyrimidin-4-amine]	43	39
C[C@@H]1CN(c2nccc(Nc3cc(-c4ccc5c(ccn5C)c4)n[nH]3)n2)C[C@H](C)O1 [Compound 217, 2-((2R,6S)-2,6-dimethylmorpholino)-N-(3-(1-methyl-1H-indol-5-yl)-1H-pyrazol-5-yl)pyrimidin-4-amine]	6	5
COc1cc(F)c(-c2cc(Nc3ccnc(N4C[C@@H](C)O[C@@H](C)C4)n3)[nH]n2)cc1F [Compound 218, N-(3-(2,5-difluoro-4-methoxyphenyl)-1H-pyrazol-5-yl)-2-((2R,6S)-2,6-dimethylmorpholino)pyrimidin-4-amine]	13	20
CC1COCC(C)N1c1nccc(Nc2cc(-c3ccc(OC(F)F)cc3)n[nH]2)n1 (stereo not drawn) [Compound 227, N-(3-(4-(difluoromethoxy)phenyl)-1H-pyrazol-5-yl)-2-(3,5-dimethylmorpholino)pyrimidin-4-amine]	1430	2260
CC1COCCN1c1nccc(Nc2cc(-c3ccc(OC(F)F)cc3)n[nH]2)n1 (stereo not drawn) [Compound 229, N-(3-(4-(difluoromethoxy)phenyl)-1H-pyrazol-5-yl)-2-(3-methylmorpholino)pyrimidin-4-amine]	96	62
C[C@@H]1CN(c2nccc(Nc3cc(-c4ccc(OC(F)F)cc4)n[nH]3)n2)C[C@@H](C)O1 [Compound 240, N-(3-(4-(difluoromethoxy)phenyl)-1H-pyrazol-5-yl)-2-((2R,6R)-2,6-dimethylmorpholino)pyrimidin-4-amine]	103	1060
C[C@H]1CN(c2nccc(Nc3cc(-c4ccc(OC(F)F)cc4)n[nH]3)n2)C[C@H](C)O1 [Compound 241, N-(3-(4-(difluoromethoxy)phenyl)-1H-pyrazol-5-yl)-2-((25,6S)-2,6-dimethylmorpholino)pyrimidin-4-amine]	46	1810
FC(F)Oc1ccc(-c2cc(Nc3ccnc(N4CCCC4)n3)[nH]n2)cc1 [Compound 242, N-(3-(4-(difluoromethoxy)phenyl)-1H-pyrazol-5-yl)-2-(pyrrolidin-1-yl)pyrimidin-4-amine]	110	1490
FC(F)Oc1ccc(-c2cc(Nc3ccnc(N4CCCCC4)n3)[nH]n2)cc1 [Compound 243, N-(3-(4-(difluoromethoxy)phenyl)-1H-pyrazol-5-yl)-2-(piperidin-1-yl)pyrimidin-4-amine]	17	53
FC(F)Oc1ccc(-c2cc(Nc3ccnc(N4CCC4)n3)[nH]n2)cc1 [Compound 244, 2-(azetidin-1-yl)-N-(3-(4-(difluoromethoxy)phenyl)-1H-pyrazol-5-yl)pyrimidin-4-amine]	46	1120
CC1CN(c2nccc(Nc3cc(-c4ccc(OC(F)F)cc4)n[nH]3)n2)C1 [Compound 245, N-(3-(4-(difluoromethoxy)phenyl)-1H-pyrazol-5-yl)-2-(3-methylazetidin-1-yl)pyrimidin-4-amine]	47	≥ 10000
FC1CN(c2nccc(Nc3cc(-c4ccc(OC(F)F)cc4)n[nH]3)n2)C1 [Compound 246, N-(3-(4-(difluoromethoxy)phenyl)-1H-pyrazol-5-yl)-2-(3-fluoroazetidin-1-yl)pyrimidin-4-amine]	71	≥ 10000
CC1(C)CN(c2nccc(Nc3cc(-c4ccc(OC(F)F)cc4)n[nH]3)n2)C1 [Compound 247, N-(3-(4-(difluoromethoxy)phenyl)-1H-pyrazol-5-yl)-2-(3,3-dimethylazetidin-1-yl)pyrimidin-4-amine]	142	≥ 10000
CC1(F)CN(c2nccc(Nc3cc(-c4ccc(OC(F)F)cc4)n[nH]3)n2)C1 [Compound 248, N-(3-(4-(difluoromethoxy)phenyl)-1H-pyrazol-5-yl)-2-(3-fluoro-3-methylazetidin-1-yl)pyrimidin-4-amine]	1560	≥ 10000
FC(F)Oc1ccc(-c2cc(Nc3ccnc(N4CC(F)(F)C4)n3)[nH]n2)cc1 [Compound 249, 2-(3,3-difluoroazetidin-1-yl)-N-(3-(4-(difluoromethoxy)phenyl)-1H-pyrazol-5-yl)pyrimidin-4-amine]	305	≥ 10000
FC(F)Oc1ccc(-c2cc(Nc3ccnc(N4CCC(F)(F)C4)n3)[nH]n2)cc1 [Compound 252, N-(3-(4-(difluoromethoxy)phenyl)-1H-pyrazol-5-yl)-2-(3,3-difluoropyrrolidin-1-yl)pyrimidin-4-amine]	122	1260
FC(F)Oc1ccc(-c2cc(Nc3ccnc(N4CCC(F)(F)CC4)n3)[nH]n2)cc1 [Compound 253, N-(3-(4-(difluoromethoxy)phenyl)-1H-pyrazol-5-yl)-2-(4,4-difluoropiperidin-1-yl)pyrimidin-4-amine]	148	1560
